# Test system: 242566-281-R-J2-PDC complex spheroid viability
# Assay: Anticancer human tumor 242566-281-R-J2-PDC patient-derived pancreatic carcinoma cell line growth inhibition [RAS]
# Details: for IC50: curve of first compound; for viability, T/C: stronger effect = lower value
# Method in brief: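 Tumour cells grown as complex spheroids with HUVEC endothelial cells and mesenchymal stem cells, treated with RAS pathway inhibitor combinations. Each agent spans half-log steps from near clinical Cmax, or 10 microM where Cmax is unknown.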
# 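Further: spheroids exposed to compound for 7 days before readout.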
# 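Wherever viability, T/C is given: 100% = DMSO vehicle control wells.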
smiles,measurement,setting,value
CC1(C)CCC(Nc2ncc(C(F)(F)F)c(-c3c[nH]c4c(P(C)(C)=O)c(C#N)ccc34)n2)CN1 (stereo unspecified) + C#Cc1c(F)ccc2cc(O)cc(-c3ncc4c(N5CC6CCC(C5)N6)nc(OCC56CCCN5CC(F)C6)nc4c3F)c12,IC50,second compound 0.0316 µM,> 0.3 µM
same,IC50,second compound 0.1 µM,> 0.3 µM
same,IC50,second compound 0.316 µM,> 0.3 µM
same,IC50,second compound 1 µM,> 0.3 µM
same,IC50,second compound 3.16 µM,> 0.3 µM
same,IC50,second compound 10 µM,< 0.000949 µM
same,"viability, T/C","second compound 0.0316 µM, first compound 0.000949 µM",90.3%
same,"viability, T/C","second compound 0.0316 µM, first compound 0.003 µM",111%
same,"viability, T/C","second compound 0.0316 µM, first compound 0.00949 µM",85.6%
same,"viability, T/C","second compound 0.0316 µM, first compound 0.03 µM",86.4%
same,"viability, T/C","second compound 0.0316 µM, first compound 0.0949 µM",84.9%
same,"viability, T/C","second compound 0.0316 µM, first compound 0.3 µM",88.8%
same,"viability, T/C","second compound 0.1 µM, first compound 0.000949 µM",78.1%
same,"viability, T/C","second compound 0.1 µM, first compound 0.003 µM",81.8%
same,"viability, T/C","second compound 0.1 µM, first compound 0.00949 µM",71.6%
same,"viability, T/C","second compound 0.1 µM, first compound 0.03 µM",81.7%
same,"viability, T/C","second compound 0.1 µM, first compound 0.0949 µM",81.2%
same,"viability, T/C","second compound 0.1 µM, first compound 0.3 µM",81.3%
same,"viability, T/C","second compound 0.316 µM, first compound 0.000949 µM",70.7%
same,"viability, T/C","second compound 0.316 µM, first compound 0.003 µM",66.6%
same,"viability, T/C","second compound 0.316 µM, first compound 0.00949 µM",62.3%
same,"viability, T/C","second compound 0.316 µM, first compound 0.03 µM",60.5%
same,"viability, T/C","second compound 0.316 µM, first compound 0.0949 µM",62.9%
same,"viability, T/C","second compound 0.316 µM, first compound 0.3 µM",62.9%
same,"viability, T/C","second compound 1 µM, first compound 0.000949 µM",59.4%
same,"viability, T/C","second compound 1 µM, first compound 0.003 µM",59.8%
same,"viability, T/C","second compound 1 µM, first compound 0.00949 µM",49.3%
same,"viability, T/C","second compound 1 µM, first compound 0.03 µM",47.4%
same,"viability, T/C","second compound 1 µM, first compound 0.0949 µM",55.1%
same,"viability, T/C","second compound 1 µM, first compound 0.3 µM",59.5%
same,"viability, T/C","second compound 3.16 µM, first compound 0.000949 µM",50.8%
same,"viability, T/C","second compound 3.16 µM, first compound 0.003 µM",57.5%
same,"viability, T/C","second compound 3.16 µM, first compound 0.00949 µM",48.4%
same,"viability, T/C","second compound 3.16 µM, first compound 0.03 µM",47.4%
same,"viability, T/C","second compound 3.16 µM, first compound 0.0949 µM",49.8%
same,"viability, T/C","second compound 3.16 µM, first compound 0.3 µM",53.3%
same,"viability, T/C","second compound 10 µM, first compound 0.000949 µM",45.2%
same,"viability, T/C","second compound 10 µM, first compound 0.003 µM",50%
same,"viability, T/C","second compound 10 µM, first compound 0.00949 µM",44.7%
same,"viability, T/C","second compound 10 µM, first compound 0.03 µM",50.2%
same,"viability, T/C","second compound 10 µM, first compound 0.0949 µM",53.4%
same,"viability, T/C","second compound 10 µM, first compound 0.3 µM",44.1%
CC(C)NCC(C(=O)N1CCN(c2ncnc3c2C(C)CC3O)CC1)c1ccc(Cl)cc1 (stereo unspecified) + CCn1c(-c2cc(N3CCN(C)CC3)cnc2C(C)OC)c2c3cc(ccc31)-c1csc(n1)CC(NC(=O)C1CC1C)C(=O)N1CCCC(N1)C(=O)OCC(C)(C)C2,IC50,second compound 0.000949 µM,7.98 µM
same,IC50,second compound 0.003 µM,3.66 µM
same,IC50,second compound 0.00949 µM,< 0.0316 µM
same,IC50,second compound 0.03 µM,< 0.0316 µM
same,IC50,second compound 0.0949 µM,< 0.0316 µM
same,IC50,second compound 0.3 µM,< 0.0316 µM
same,"viability, T/C","second compound 0.000949 µM, first compound 0.0316 µM",92.1%
same,"viability, T/C","second compound 0.000949 µM, first compound 0.1 µM",92.8%
same,"viability, T/C","second compound 0.000949 µM, first compound 0.316 µM",74.8%
same,"viability, T/C","second compound 0.000949 µM, first compound 1 µM",95.2%
same,"viability, T/C","second compound 0.000949 µM, first compound 3.16 µM",75.2%
same,"viability, T/C","second compound 0.000949 µM, first compound 10 µM",43.9%
same,"viability, T/C","second compound 0.003 µM, first compound 0.0316 µM",78%
same,"viability, T/C","second compound 0.003 µM, first compound 0.1 µM",70.3%
same,"viability, T/C","second compound 0.003 µM, first compound 0.316 µM",57.6%
same,"viability, T/C","second compound 0.003 µM, first compound 1 µM",64.8%
same,"viability, T/C","second compound 0.003 µM, first compound 3.16 µM",56.9%
same,"viability, T/C","second compound 0.003 µM, first compound 10 µM",28.4%
same,"viability, T/C","second compound 0.00949 µM, first compound 0.0316 µM",49.6%
same,"viability, T/C","second compound 0.00949 µM, first compound 0.1 µM",42.6%
same,"viability, T/C","second compound 0.00949 µM, first compound 0.316 µM",48.6%
same,"viability, T/C","second compound 0.00949 µM, first compound 1 µM",41.5%
same,"viability, T/C","second compound 0.00949 µM, first compound 3.16 µM",26%
same,"viability, T/C","second compound 0.00949 µM, first compound 10 µM",17.9%
same,"viability, T/C","second compound 0.03 µM, first compound 0.0316 µM",30.9%
same,"viability, T/C","second compound 0.03 µM, first compound 0.1 µM",31.8%
same,"viability, T/C","second compound 0.03 µM, first compound 0.316 µM",28.5%
same,"viability, T/C","second compound 0.03 µM, first compound 1 µM",27.1%
same,"viability, T/C","second compound 0.03 µM, first compound 3.16 µM",12%
same,"viability, T/C","second compound 0.03 µM, first compound 10 µM",9.97%
same,"viability, T/C","second compound 0.0949 µM, first compound 0.0316 µM",23.8%
same,"viability, T/C","second compound 0.0949 µM, first compound 0.1 µM",22.7%
same,"viability, T/C","second compound 0.0949 µM, first compound 0.316 µM",22.1%
same,"viability, T/C","second compound 0.0949 µM, first compound 1 µM",20.8%
same,"viability, T/C","second compound 0.0949 µM, first compound 3.16 µM",7.71%
same,"viability, T/C","second compound 0.0949 µM, first compound 10 µM",5.5%
same,"viability, T/C","second compound 0.3 µM, first compound 0.0316 µM",19.9%
same,"viability, T/C","second compound 0.3 µM, first compound 0.1 µM",18%
same,"viability, T/C","second compound 0.3 µM, first compound 0.316 µM",16.7%
same,"viability, T/C","second compound 0.3 µM, first compound 1 µM",13.1%
same,"viability, T/C","second compound 0.3 µM, first compound 3.16 µM",6.93%
same,"viability, T/C","second compound 0.3 µM, first compound 10 µM",3.76%
NC1c2ccccc2OC12CCN(c1cnc3c(N4CCCc5ncccc54)n[nH]c3n1)CC2 (stereo unspecified) + C#Cc1c(F)ccc2cc(O)cc(-c3ncc4c(N5CC6CCC(C5)N6)nc(OCC56CCCN5CC(F)C6)nc4c3F)c12,IC50,second compound 0.0316 µM,0.163 µM
same,IC50,second compound 0.1 µM,0.0524 µM
same,IC50,second compound 0.316 µM,< 0.0316 µM
same,IC50,second compound 1 µM,< 0.0316 µM
same,IC50,second compound 3.16 µM,< 0.0316 µM
same,IC50,second compound 10 µM,< 0.0316 µM
same,"viability, T/C","second compound 0.0316 µM, first compound 0.0316 µM",72.3%
same,"viability, T/C","second compound 0.0316 µM, first compound 0.1 µM",56.2%
same,"viability, T/C","second compound 0.0316 µM, first compound 0.316 µM",41.6%
same,"viability, T/C","second compound 0.0316 µM, first compound 1 µM",33.1%
same,"viability, T/C","second compound 0.0316 µM, first compound 3.16 µM",29.7%
same,"viability, T/C","second compound 0.0316 µM, first compound 10 µM",22.9%
same,"viability, T/C","second compound 0.1 µM, first compound 0.0316 µM",52.3%
same,"viability, T/C","second compound 0.1 µM, first compound 0.1 µM",49%
same,"viability, T/C","second compound 0.1 µM, first compound 0.316 µM",36.8%
same,"viability, T/C","second compound 0.1 µM, first compound 1 µM",28.4%
same,"viability, T/C","second compound 0.1 µM, first compound 3.16 µM",34.1%
same,"viability, T/C","second compound 0.1 µM, first compound 10 µM",20.3%
same,"viability, T/C","second compound 0.316 µM, first compound 0.0316 µM",40.6%
same,"viability, T/C","second compound 0.316 µM, first compound 0.1 µM",43%
same,"viability, T/C","second compound 0.316 µM, first compound 0.316 µM",36.1%
same,"viability, T/C","second compound 0.316 µM, first compound 1 µM",35.7%
same,"viability, T/C","second compound 0.316 µM, first compound 3.16 µM",31.8%
same,"viability, T/C","second compound 0.316 µM, first compound 10 µM",17.3%
same,"viability, T/C","second compound 1 µM, first compound 0.0316 µM",32.2%
same,"viability, T/C","second compound 1 µM, first compound 0.1 µM",37.8%
same,"viability, T/C","second compound 1 µM, first compound 0.316 µM",36.3%
same,"viability, T/C","second compound 1 µM, first compound 1 µM",29%
same,"viability, T/C","second compound 1 µM, first compound 3.16 µM",34%
same,"viability, T/C","second compound 1 µM, first compound 10 µM",18.7%
same,"viability, T/C","second compound 3.16 µM, first compound 0.0316 µM",35.2%
same,"viability, T/C","second compound 3.16 µM, first compound 0.1 µM",38.1%
same,"viability, T/C","second compound 3.16 µM, first compound 0.316 µM",39.5%
same,"viability, T/C","second compound 3.16 µM, first compound 1 µM",33.7%
same,"viability, T/C","second compound 3.16 µM, first compound 3.16 µM",34.9%
same,"viability, T/C","second compound 3.16 µM, first compound 10 µM",16.2%
same,"viability, T/C","second compound 10 µM, first compound 0.0316 µM",38.1%
same,"viability, T/C","second compound 10 µM, first compound 0.1 µM",36.9%
same,"viability, T/C","second compound 10 µM, first compound 0.316 µM",39.6%
same,"viability, T/C","second compound 10 µM, first compound 1 µM",33%
same,"viability, T/C","second compound 10 µM, first compound 3.16 µM",35.5%
same,"viability, T/C","second compound 10 µM, first compound 10 µM",10.4%

# — PubChem BioAssay AID2060910 (Molecular Pharmacology Branch, DTP, NCI, 2025)
